Data as given in patent publication US20240317708A1, “INHIBITORS OF TRANSGLUTAMINASES” (ZEDIRA GMBH, priority 2021, published 2024).

Assays:
[1] = target: T1, recombinant human transglutaminase 2 (Homo sapiens, UniProt P21980); assay: Transglutaminase assay (dansylcadaverine incorporation into dimethylcasein, DCC-assay); type: biochemical; details: recombinant human TG2 10 nM, dansylcadaverine/dimethylcasein, 37° C.
T1 construct: purchased Zedira T022
T1 sequence (P21980 1-687): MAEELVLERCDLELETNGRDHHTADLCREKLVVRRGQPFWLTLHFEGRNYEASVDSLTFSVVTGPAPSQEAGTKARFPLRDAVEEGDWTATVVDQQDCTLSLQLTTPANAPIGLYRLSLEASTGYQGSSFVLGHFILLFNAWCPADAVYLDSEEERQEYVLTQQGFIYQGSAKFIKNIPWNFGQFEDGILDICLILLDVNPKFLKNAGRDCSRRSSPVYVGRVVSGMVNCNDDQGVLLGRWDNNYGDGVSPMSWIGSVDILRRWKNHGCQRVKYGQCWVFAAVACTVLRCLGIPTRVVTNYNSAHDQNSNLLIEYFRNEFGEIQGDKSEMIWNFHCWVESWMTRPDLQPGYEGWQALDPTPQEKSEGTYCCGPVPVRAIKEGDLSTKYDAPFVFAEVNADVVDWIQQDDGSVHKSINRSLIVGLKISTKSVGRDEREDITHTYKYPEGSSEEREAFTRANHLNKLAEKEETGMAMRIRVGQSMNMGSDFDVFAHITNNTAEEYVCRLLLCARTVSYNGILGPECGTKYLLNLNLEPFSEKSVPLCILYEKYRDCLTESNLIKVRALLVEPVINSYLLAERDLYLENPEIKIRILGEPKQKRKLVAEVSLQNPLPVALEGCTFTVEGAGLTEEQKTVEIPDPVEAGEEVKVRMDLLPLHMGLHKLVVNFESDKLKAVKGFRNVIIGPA
Method: For the determination of potency of inhibitors against tissue transglutaminase, the incorporation of dansylcadaverine into dimethylcasein (Zedira product T036, Lorand et al., Anal Biochem, 1971, 44:221-31) was measured using recombinant human transglutaminase 2 (Zedira Product T022).
The tissue transglutaminase is diluted in buffer (50 mM Tris-HCl, 7.5 mM CaCl2, 150 mM NaCl, pH=7.4). The final concentration of TG2 in the assay is 10 nM.
A 10 mM inhibitor stock solution is prepared in DMSO, and from this a serial 1:2-fold dilution series is prepared also in DMSO. Each of the initial dilutions is subsequently diluted 1:50-fold with buffer (50 mM Tris-HCl, 7.5 mM CaCl2, 150 mM NaCl, pH=7.4) to yield the final working dilutions containing 2% (v/v) DMSO.
15 μl of inhibitor working dilution are added per well of a 96 well microtiter plate. As control, 15 μl of a 2% (v/v) DMSO solution prepared using the buffer mentioned above are added per well.
Immediately before starting the assay, 600 μl transglutaminase working solution are added to 11.4 ml assay buffer (50 mM Tris-HCl, 10 mM CaCl2, 10 mM glutathione, 2.5% glycerol, 16.7 μM dansylcadaverine, 4 μM N,N-dimethylcasein, 200 mM NaCl, pH=8.0). 285 μl of this reaction mix are added per well containing the inhibitor.
Increase in fluorescence is measured using λex=330 nm and λem=500 nm at 37° C. for 30 min. A slope of the increase in fluorescence between 20 and 30 min is calculated for determination of the IC50 value (inhibitor concentration at which 50% of the initial activity is blocked).
Analysis of enzymatic activity is performed by calculation of the slope of an increase in fluorescence intensity. IC50 values are calculated by plotting the enzymatic activity (as percentage from control containing 2% DMSO instead of inhibitor) against the inhibitor concentration. IC50 is defined as the inhibitor concentration blocking 50% of initial enzyme activity.

[2] = Log D shake flask method (octanol / PBS pH 7.4, HPLC); type: physicochemical; details: octanol/phosphate-buffered saline (PBS); octanol / PBS pH 7.4, shake flask
Method: In order to classify the inventive compounds according to their lipophilicity, Log D values (distribution coefficient) were determined by means of the well-established shake flask method, measuring the partition of a compound between an octanol and phosphate-buffered saline (PBS, pH 7.4) by HPLC.

[3] = Caco-2 permeability assay (CacoReady kit); type: in vitro ADME; details: human
Method: Permeability coefficients (Papp values) were obtained from Caco-2 barrier studies predicting oral/intestinal bioavailability of the tested compounds. The assays were performed by using CacoReady™ ready-to-use kits from ReadyCell according to the manufacturers protocol.

Compound | IC50 [1] | logD [2] | Papp [3]
COC(=O)/C=C/CC[C@H](NC(=O)c1ncns1)C(=O)Nc1cccn(CC(=O)NC23CC(C2)C3)c1=O [III-170, (S,E)-methyl 7-(1-(2-(bicyclo[1.1.1]pentan-1-ylamino)-2-oxoethyl)-2-oxo-1,2-dihydropyridin-3-ylamino)-7-oxo-6-(1,2,4-thiadiazole-5-carboxamido)hept-2-enoate] | 25 to 250 nM | < 1 | < 1 ×10⁻⁶ cm/s
COC(=O)/C=C/CC[C@H](NC(=O)c1oc2ccccc2c1C)C(=O)Nc1cccn(CC(=O)N[C@@H]2C[C@@H]3CC[C@H]2C3)c1=O [III-59, (S,E)-methyl 7-(1-(2-((1 S,2R,4R)-bicyclo[2.2.1]heptan-2-ylamino)-2-oxoethyl)-2-oxo-1,2-dihydropyridin-3-ylamino)-6-(3-methylbenzofuran-2-carboxamido)-7-oxohept-2-enoate] | < 25 nM | 3 to 5 | 1 to 10 ×10⁻⁶ cm/s
COC(=O)/C=C/CC[C@H](NC(=O)[C@@H]1CCCCN1)C(=O)Nc1cccn(CC(=O)NC2C3CC4CC(C3)CC2C4)c1=O (stereo partly drawn) [III-29, (S,E)-methyl 7-(1-(2-(2-adamantylamino)-2-oxoethyl)-2-oxo-1,2-dihydropyridin-3-ylamino)-7-oxo-6-((S)-piperidine-2-carboxamido)hept-2-enoate] | 25 to 250 nM | 3 to 5 | < 1 ×10⁻⁶ cm/s
O=C(/C=C/CC[C@H](NC(=O)c1nc(Cl)sc1Cl)C(=O)Nc1cccn(CC(=O)NC23CC(C2)C3)c1=O)NCc1ccccc1 [III-154, (S,E)-N1-benzyl-N7-(1-(2-(bicyclo[1.1.1]pentan-1-ylamino)-2-oxoethyl)-2-oxo-1,2-dihydropyridin-3-yl)-6-(2,5-dichlorothiazole-4-carboxamido)hept-2-enediamide] | 250 to 1500 nM | 1 to 3 | 1 to 10 ×10⁻⁶ cm/s
COC(=O)/C=C/CC[C@H](NC(=O)c1c[nH]cn1)C(=O)Nc1cccn(CC(=O)NC2C3CC4CC(C3)CC2C4)c1=O (stereo partly drawn) [III-28, (S,E)-methyl 6-(1H-imidazole-4-carboxamido)-7-(1-(2-(2-adamantylamino)-2-oxoethyl)-2-oxo-1,2-dihydropyridin-3-ylamino)-7-oxohept-2-enoate] | 250 to 1500 nM | 3 to 5 | < 1 ×10⁻⁶ cm/s
CCCCCNC(=O)/C=C/CC[C@H](NC(=O)c1nc2ccccc2s1)C(=O)Nc1cccn(CC(=O)NC23CC(C2)C3)c1=O [III-142, (S,E)-6-(benzo[d]thiazole-2-carboxamido)-N7-(1-(2-(bicyclo[1.1.1]pentan-1-ylamino)-2-oxoethyl)-2-oxo-1,2-dihydropyridin-3-yl)-N1-pentylheptyl-2-enediamide] | 25 to 250 nM | 1 to 3 | 1 to 10 ×10⁻⁶ cm/s
COC(=O)/C=C/CC[C@H](NC(=O)c1ccncc1)C(=O)Nc1cccn(CC(=O)NC2C3CC4CC(C3)CC2C4)c1=O (stereo partly drawn) [III-84, (S,E)-methyl 6-(isonicotinamido)-7-(1-(2-(2-adamantylamino)-2-oxoethyl)-2-oxo-1,2-dihydropyridin-3-ylamino)-7-oxohept-2-enoate] | < 25 nM | 3 to 5 | < 1 ×10⁻⁶ cm/s
COC(=O)/C=C/CC[C@H](NC(=O)c1cnc(NC(C)=O)s1)C(=O)Nc1cccn(CC(=O)NC23CC(C2)C3)c1=O [III-162, (S,E)-methyl 6-(2-acetamidothiazole-5-carboxamido)-7-(1-(2-(bicyclo[1.1.1]pentan-1-ylamino)-2-oxoethyl)-2-oxo-1,2-dihydropyridin-3-ylamino)-7-oxohept-2-enoate] | 250 to 1500 nM | < 1 | < 1 ×10⁻⁶ cm/s
COC(=O)/C=C/CC[C@H](NC(=O)c1oc2ccccc2c1C)C(=O)Nc1cccn(CC(=O)N[C@H]2C[C@H]3CC[C@]2(C)C3(C)C)c1=O [III-61, (S,E)-methyl 6-(3-methylbenzofuran-2-carboxamido)-7-oxo-7-(2-oxo-1-(2-oxo-2-((1R,2S,4R)-1,7,7-trimethylbicyclo[2.2.1]heptan-2-ylamino)ethyl)-1,2-dihydropyridin-3-ylamino)hept-2-enoate] | 25 to 250 nM | 3 to 5 | 1 to 10 ×10⁻⁶ cm/s
COC(=O)/C=C/CC[C@H](NC(=O)c1noc(C)n1)C(=O)Nc1cccn(CC(=O)NC23CC(C2)C3)c1=O [III-168, (S,E)-methyl 7-(1-(2-(bicyclo[1.1.1]pentan-1-ylamino)-2-oxoethyl)-2-oxo-1,2-dihydropyridin-3-ylamino)-6-(5-methyl-1,2,4-oxadiazole-3-carboxamido)-7-oxohept-2-enoate] | 250 to 1500 nM | < 1 | < 1 ×10⁻⁶ cm/s
COC(=O)/C=C/CC[C@H](NC(=O)c1ccnn1C)C(=O)Nc1cccn(CC(=O)NC23CC4CC(C)(CC(C)(C4)C2)C3)c1=O [III-113, (S,E)-methyl 7-(1-(2-(3,5-dimethyladamantane-1-amino)-2-oxoethyl)-2-oxo-1,2-dihydropyridin-3-ylamino)-6-(1-methyl-1H-pyrazole-5-carboxamido)-7-oxohept-2-enoate] | < 25 nM | 1 to 3 | < 1 ×10⁻⁶ cm/s
Cc1nc2ncccc2cc1C(=O)N[C@@H](CC/C=C/C(=O)NC1CCCC1)C(=O)Nc1cccn(CC(=O)NC23CC(C2)C3)c1=O [III-146, (S,E)-N7-(1-(2-(bicyclo[1.1.1]pentan-1-ylamino)-2-oxoethyl)-2-oxo-1,2-dihydropyridin-3-yl)-N1-cyclopentyl-6-(2-methyl-1,8-naphthyridine-3-carboxamido)hept-2-enediamide] | 250 to 1500 nM | < 1 | < 1 ×10⁻⁶ cm/s
COC(=O)/C=C/CC[C@H](NC(=O)c1cncn1C)C(=O)Nc1cccn(CC(=O)N[C@H]2C[C@H]3CC[C@]2(C)C3(C)C)c1=O [III-60, (S,E)-methyl 6-(1-methyl-1H-imidazole-5-carboxamido)-7-oxo-7-(2-oxo-1-(2-oxo-2-((1R,2S,4R)-1,7,7-trimethylbicyclo[2.2.1]heptan-2-ylamino)ethyl)-1,2-dihydropyridin-3-ylamino)hept-2-enoate] | < 25 nM | 3 to 5 | < 1 ×10⁻⁶ cm/s
COC(=O)/C=C/CC[C@H](NC(=O)c1oc2ccccc2c1C)C(=O)Nc1cccn(CC(=O)N(C)C23CC4CC(CC(C4)C2)C3)c1=O [III-47, (S,E)-methyl 7-(1-(2-(1-adamantyl(methyl)amino)-2-oxoethyl)-2-oxo-1,2-dihydropyridin-3-ylamino)-6-(3-methylbenzofuran-2-carboxamido)-7-oxohept-2-enoate] | 250 to 1500 nM | 3 to 5 | 1 to 10 ×10⁻⁶ cm/s
COC(=O)/C=C/CC[C@H](NC(=O)c1cncc([N+](=O)[O-])c1)C(=O)Nc1cccn(CC(=O)NC2C3CC4CC(C3)CC2C4)c1=O (stereo partly drawn) [III-34, (S,E)-methyl 7-(1-(2-(2-adamantylamino)-2-oxoethyl)-2-oxo-1,2-dihydropyridin-3-ylamino)-6-(5-nitronicotinamido)-7-oxohept-2-enoate] | < 25 nM | 3 to 5 | < 1 ×10⁻⁶ cm/s
CCCCCNC(=O)/C=C/CC[C@H](NC(=O)c1cn2ccsc2n1)C(=O)Nc1cccn(CC(=O)NC23CC(C2)C3)c1=O [III-143, (S,E)-N7-(1-(2-(bicyclo[1.1.1]pentan-1-ylamino)-2-oxoethyl)-2-oxo-1,2-dihydropyridin-3-yl)-6-(imidazo[2,1-b]thiazole-6-carboxamido)-N1-pentylhept-2-enediamide] | 250 to 1500 nM | 1 to 3 | 1 to 10 ×10⁻⁶ cm/s
